Measured values as given in patent US4129591A, “Ureida-phenylenebis(substituted imino)multianionic substituted dinaphthalene sulfonic acids and salts” (American Cyanamid Company, priority 1976, dated 1978).
Counter-ions that a name gives are not always drawn.

Experiments:
[1] = test system: hereditary angioneurotic edema; details: New England Journal of Medicine, 286, 808-812 (1972); cited from earlier work
[2] = test system: late components of human complement (C3-C9); test: Test, Code 035 (C3-C9 inhibitor), lysis of EAC 142; format: cell-based; details: human C3-C9, EAC 142, in vitro
Text: (§1) An active inhibitor protects C2 from C1 and C4; (ii) Test, Code 035 (C3-C9 inhibitor) -- This test determines the ability of the late components of human complement (C3-C9) to lyse EAC 142 in the presence of appropriate dilutions of the test compound. An active inhibitor protects EAC 142 from lysis by human C3-C9; (iii) Test, Code 036 (C-Shunt inhibitor) -- In this test human erythrocytes rendered fragile are lysed in autologous serum via the shunt pathway activated by cobra venom factor in the presence of appropriate dilutions of the test compound. Inhibition of the shunt pathway results in failure of lysis; (iv) Forssman Vasculitis Test -- Here, the well known complement dependent lesion, Forssman vasculitis, is produced in guinea pigs by intradermal injection of rabbit anti-Forssman antiserum. The lesion is measured in terms of diameter, edema and hemorrhage and the extent to which a combined index of these is inhibited by prior intraperitoneal injection of the test compound at 200 mg/kg is then reported, unless otherwise stated; (v) Forssman Shock Test -- Lethal shock is produced in guinea pigs by an i.v. injection of anti-Forssman antiserum and the harmonic mean death time of treated guinea pigs is compared with that of simultaneous controls; (vi) Complement Level Reduction Test -- In this test, the above dosed guinea pigs, or others, are bled for serum and the complement level is determined in undiluted serum by the capillary tube method of U.S. Pat. No. 3,876,376 and compared to undosed control guinea pigs; and (vii) Cap 50 Test -- Here, appropriate amounts of the test compound are added to a pool of guinea pig serum in vitro, after which the undiluted serum capillary tube assay referred to above is run. The concentration of compound inhibiting 50% is reported.

[3] = target: T1, activated human C1 (Homo sapiens, UniProt P09871); test: Test, Code 026 (C1 inhibitor); format: biochemical; details: human C1, in vitro
T1 construct: fluid-phase human C2 cleavage in presence of C4
Text: An active inhibitor protects C2 from C1 and C4; (ii) Test, Code 035 (C3-C9 inhibitor) -- This test determines the ability of the late components of human complement (C3-C9) to lyse EAC 142 in the presence of appropriate dilutions of the test compound. An active inhibitor protects EAC 142 from lysis by human C3-C9; (iii) Test, Code 036 (C-Shunt inhibitor) -- In this test human erythrocytes rendered fragile are lysed in autologous serum via the shunt pathway activated by cobra venom factor in the presence of appropriate dilutions of the test compound. Inhibition of the shunt pathway results in failure of lysis; (iv) Forssman Vasculitis Test -- Here, the well known complement dependent lesion, Forssman vasculitis, is produced in guinea pigs by intradermal injection of rabbit anti-Forssman antiserum. […]

[4] = test system: shunt pathway activated by cobra venom factor; test: Test, Code 036 (C-Shunt inhibitor), lysis of human erythrocytes in autologous serum; format: cell-based
Text: as §1

[5] = test system: whole complement; test: Complement level reduction in dosed guinea pigs (capillary tube assay); format: in vivo; details: guinea pig, 200 mg/kg
[6] = test system: complement system; details: literature; cited from earlier work

T1 sequence (P09871 16-688): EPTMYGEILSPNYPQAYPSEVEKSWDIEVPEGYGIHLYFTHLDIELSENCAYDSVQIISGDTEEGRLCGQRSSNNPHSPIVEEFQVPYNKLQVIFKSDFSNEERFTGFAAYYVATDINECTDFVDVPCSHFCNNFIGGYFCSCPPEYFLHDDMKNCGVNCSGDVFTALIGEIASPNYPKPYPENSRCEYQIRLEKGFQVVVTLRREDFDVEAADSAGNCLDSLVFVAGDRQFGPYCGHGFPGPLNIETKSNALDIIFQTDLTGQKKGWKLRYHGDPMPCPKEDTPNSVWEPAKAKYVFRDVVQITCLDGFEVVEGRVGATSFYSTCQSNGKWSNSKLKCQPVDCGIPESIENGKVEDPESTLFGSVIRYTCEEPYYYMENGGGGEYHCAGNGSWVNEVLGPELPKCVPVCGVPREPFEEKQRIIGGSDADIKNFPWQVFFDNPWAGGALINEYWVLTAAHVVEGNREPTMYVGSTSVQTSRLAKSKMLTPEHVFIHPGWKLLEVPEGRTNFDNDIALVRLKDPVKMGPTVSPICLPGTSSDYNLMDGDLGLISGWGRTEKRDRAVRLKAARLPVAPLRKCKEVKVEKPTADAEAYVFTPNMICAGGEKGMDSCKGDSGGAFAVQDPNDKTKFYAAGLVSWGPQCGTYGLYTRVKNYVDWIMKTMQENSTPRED
T1 sequence (P00736 18-705 partner): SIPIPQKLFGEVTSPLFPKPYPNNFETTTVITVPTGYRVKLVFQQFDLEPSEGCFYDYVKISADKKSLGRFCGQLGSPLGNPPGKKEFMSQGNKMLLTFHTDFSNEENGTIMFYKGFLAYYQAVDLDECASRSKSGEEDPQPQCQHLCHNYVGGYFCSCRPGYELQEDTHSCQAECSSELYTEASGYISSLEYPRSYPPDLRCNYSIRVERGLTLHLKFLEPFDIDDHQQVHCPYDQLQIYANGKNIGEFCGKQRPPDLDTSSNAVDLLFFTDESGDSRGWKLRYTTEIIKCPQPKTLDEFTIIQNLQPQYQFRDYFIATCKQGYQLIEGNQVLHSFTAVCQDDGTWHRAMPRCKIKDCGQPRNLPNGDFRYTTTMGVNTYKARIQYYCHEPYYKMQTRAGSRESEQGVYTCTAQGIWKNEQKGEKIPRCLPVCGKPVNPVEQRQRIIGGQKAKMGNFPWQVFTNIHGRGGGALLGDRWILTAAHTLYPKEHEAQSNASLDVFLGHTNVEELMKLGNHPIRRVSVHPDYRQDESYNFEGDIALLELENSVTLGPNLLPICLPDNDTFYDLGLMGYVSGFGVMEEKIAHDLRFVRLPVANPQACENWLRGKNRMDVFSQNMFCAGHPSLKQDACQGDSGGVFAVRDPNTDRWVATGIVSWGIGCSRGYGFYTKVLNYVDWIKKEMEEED
T1 sequence (P02745 23-245 partner): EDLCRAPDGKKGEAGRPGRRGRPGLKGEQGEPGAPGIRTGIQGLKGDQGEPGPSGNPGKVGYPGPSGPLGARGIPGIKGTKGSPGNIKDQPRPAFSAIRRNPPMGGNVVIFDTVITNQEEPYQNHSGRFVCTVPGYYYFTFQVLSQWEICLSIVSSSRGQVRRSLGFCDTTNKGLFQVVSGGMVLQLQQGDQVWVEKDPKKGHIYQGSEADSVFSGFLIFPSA
T1 sequence (P02746 28-253 partner): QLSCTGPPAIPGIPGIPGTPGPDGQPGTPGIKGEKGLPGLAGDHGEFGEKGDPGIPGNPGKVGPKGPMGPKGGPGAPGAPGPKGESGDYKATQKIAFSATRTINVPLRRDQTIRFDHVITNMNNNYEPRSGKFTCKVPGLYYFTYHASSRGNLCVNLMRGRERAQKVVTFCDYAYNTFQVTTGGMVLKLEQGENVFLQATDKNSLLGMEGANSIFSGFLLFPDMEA
T1 sequence (P02747 29-245 partner): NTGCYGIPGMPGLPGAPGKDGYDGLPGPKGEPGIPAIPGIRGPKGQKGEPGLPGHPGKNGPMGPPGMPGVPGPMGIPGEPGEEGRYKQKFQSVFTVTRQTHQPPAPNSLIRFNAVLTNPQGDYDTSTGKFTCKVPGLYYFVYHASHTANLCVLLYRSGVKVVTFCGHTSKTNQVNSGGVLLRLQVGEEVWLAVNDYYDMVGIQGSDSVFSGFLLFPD

Row | Compound | use in treatment of hereditary angioneurotic edema [1] | Shunt Inhibition 036* Wells [4] | % change in complement level ([5]; i.p., time 30) [%] | % change in complement level ([5]; i.p., time 60) [%] | anticomplementary effect / complement inhibition [6] | also measured
1 | NCCCCCC(=O)O [6-aminohexanoic acid] | used with success |  |  |  |  | 
2 | O=C(Nc1cc(C(=O)Nc2cc(S(=O)(=O)O)cc3cc(S(=O)(=O)O)cc(S(=O)(=O)O)c23)cc(C(=O)Nc2cc(S(=O)(=O)O)cc3cc(S(=O)(=O)O)cc(S(=O)(=O)O)c23)c1)Nc1cc(C(=O)Nc2cc(S(=O)(=O)O)cc3cc(S(=O)(=O)O)cc(S(=O)(=O)O)c23)cc(C(=O)Nc2cc(S(=O)(=O)O)cc3cc(S(=O)(=O)O)cc(S(=O)(=O)O)c23)c1 [8,8',8",8'"-[Carbonylbis[imino-5,1,3-benzenetriylbis(carbonylimino)]]tetrakis[1,3,6-naphthalenetrisulfonic acid]dodecasodium salt] |  | +5 Wells | -88 | -85 |  | C-Late 035* Wells [2]: +3 Wells; C1 026* Wells [3]: +9 Wells; % change in complement level ([5]; i.p., time 120): -92%; % change in complement level ([5]; i.v., time 2): -98%; % change in complement level ([5]; i.v., time 30): -97%; % change in complement level ([5]; i.v., time 120): -89%
3 | Cc1ccc(C(=O)Nc2ccc(S(=O)(=O)O)c3cc(S(=O)(=O)O)cc(S(=O)(=O)O)c23)cc1NC(=O)c1cccc(NC(=O)Nc2cccc(C(=O)Nc3cc(C(=O)Nc4ccc(S(=O)(=O)O)c5cc(S(=O)(=O)O)cc(S(=O)(=O)O)c45)ccc3C)c2)c1 [Suramin] | used with success |  |  |  | competitive inhibitor of the complement system | 
4 | Nc1ccc2cc(S(=O)(=O)O)cc(O)c2c1N=Nc1ccc(NC(=O)Nc2ccc(N=Nc3c(N)ccc4cc(S(=O)(=O)O)cc(O)c34)c(S(=O)(=O)O)c2)cc1S(=O)(=O)O [chlorazol fast pink, 3,3-(carbonyldiimino)bis[6-(2-amino-8-hydroxy-6-sulfo-1-naphthylazo)benzenesulfonic acid], tetrasodium salt] |  |  |  |  | anticomplementary effect | 
5 | O=C(Nc1cc(C(=O)Nc2ccc(S(=O)(=O)O)c3cc(S(=O)(=O)O)cc(S(=O)(=O)O)c23)cc(C(=O)Nc2ccc(S(=O)(=O)O)c3cc(S(=O)(=O)O)cc(S(=O)(=O)O)c23)c1)Nc1cc(C(=O)Nc2ccc(S(=O)(=O)O)c3cc(S(=O)(=O)O)cc(S(=O)(=O)O)c23)cc(C(=O)Nc2ccc(S(=O)(=O)O)c3cc(S(=O)(=O)O)cc(S(=O)(=O)O)c23)c1 [8,8',8",8"'-[Carbonylbis[imino-5,1,3-benzenetriylbis(carbonylimino)]]tetrakis[1-3,5-naphthalenesulfonic acid] dodecasodium salt] |  |  | -98 | -98 |  | 
6 | O=C(Nc1cc(C(=O)Nc2cc(S(=O)(=O)O)cc3cc(S(=O)(=O)O)cc(O)c23)cc(C(=O)Nc2cc(S(=O)(=O)O)cc3cc(S(=O)(=O)O)cc(O)c23)c1)Nc1cc(C(=O)Nc2cc(S(=O)(=O)O)cc3cc(S(=O)(=O)O)cc(O)c23)cc(C(=O)Nc2cc(S(=O)(=O)O)cc3cc(S(=O)(=O)O)cc(O)c23)c1 [4,4',4",4'"-[Carbonylbis[imino-5,1,3-benzenetriylbis(carbonylimino)]]tetrakis[5-hydroxy-2,7-naphthalenedisulfonic acid] octasodium salt] |  | +1 Wells | -69 | -92 |  | % change in complement level ([5]; i.p., time 120): -98%
7 | NC[C@H]1CC[C@H](C(=O)O)CC1 [trans-4-(aminomethyl)-cyclohexanecarboxylic acid] | used with success |  |  |  |  | 
8 | heparin |  |  |  |  | anticomplementary effect | 
9 | O=C(Nc1cc(C(=O)Nc2cc(S(=O)(=O)O)cc3cc(S(=O)(=O)O)ccc23)cc(C(=O)Nc2cc(S(=O)(=O)O)cc3cc(S(=O)(=O)O)ccc23)c1)Nc1cc(C(=O)Nc2cc(S(=O)(=O)O)cc3cc(S(=O)(=O)O)ccc23)cc(C(=O)Nc2cc(S(=O)(=O)O)cc3cc(S(=O)(=O)O)ccc23)c1 [4,4',4",4'"-{Carbonylbis[imino-5,1,3-benzenetriylbis(carbonylimino)]}tetrakis[2,7-naphthalenedisulfonic acid] octasodium salt] |  | +3 Wells |  |  |  | C-Late 035* Wells [2]: +1 Wells; C-Late 035* Wells (class symbol N) [2]: N (N means inactive, O Wells)
